# Data taken from US12161117B2, “Agrochemical combinations” (UPL LTD, priority 2018, dated 2024).
# How the values were obtained:
# [1] = system: Fruit and shoot borer; assay: Trial of the combination Chlorantraniliprole+Novaluron+Bifenthrin on Fruit and shoot borer in paddy; format: in vivo; details: solo
# Protocol: Trials were conducted to test the efficacy of the combination of Chlorantraniliprole+Novaluron+Bifenthrin on Fruit and shoot borer in paddy: […]
# [2] = system: white ears; assay: Trial of the combination Chlorantraniliprole+Novaluron+Bifenthrin on white ears in paddy; format: in vivo; details: solo
# Protocol: Trials were conducted to test the efficacy of the combination of Chlorantraniliprole+Novaluron+Bifenthrin on white ears in paddy: […]
compound,measurement,setting,value
Cc1c(COC(=O)[C@@H]2[C@H](/C=C(\Cl)C(F)(F)F)C2(C)C)cccc1-c1ccccc1 (racemic) [Bifenthrin],Percent control Fruit and shoot borer,"[1]; 3 DAA, dose 60 gm ai/ha",54.3%
same,Percent control Fruit and shoot borer,"[1]; 7 DAA, dose 60 gm ai/ha",71%
same,Percent control Fruit and shoot borer,"[1]; 10 DAA, dose 60 gm ai/ha",64.3%
same,Percent control Fruit and shoot borer,"[1]; 14 DAA, dose 60 gm ai/ha",58.3%
same,Percent control Fruit and shoot borer,"[2]; 3 DAA, dose 60 gm ai/ha",80%
same,Percent control Fruit and shoot borer,"[2]; 7 DAA, dose 60 gm ai/ha",79%
same,Percent control Fruit and shoot borer,"[2]; 10 DAA, dose 60 gm ai/ha",55%
same,Percent control Fruit and shoot borer,"[2]; 14 DAA, dose 60 gm ai/ha",38%
"CNC(=O)c1cc(Cl)cc(C)c1NC(=O)c1cc(Br)nn1-c1ncccc1Cl [Chlorantraniliprole, 3-bromo-4′-chloro-1-(3-chloro-2-pyridyl)-2′-methyl-6′-(methylcarbamoyl)pyrazole-5-carboxanilide]",Percent control Fruit and shoot borer,"[1]; 3 DAA, dose 30 gm ai/ha",79.3%
same,Percent control Fruit and shoot borer,"[1]; 7 DAA, dose 30 gm ai/ha",90%
same,Percent control Fruit and shoot borer,"[1]; 10 DAA, dose 30 gm ai/ha",88.3%
same,Percent control Fruit and shoot borer,"[1]; 14 DAA, dose 30 gm ai/ha",78.4%
same,Percent control Fruit and shoot borer,"[2]; 3 DAA, dose 30 gm ai/ha",5%
same,Percent control Fruit and shoot borer,"[2]; 7 DAA, dose 30 gm ai/ha",6%
same,Percent control Fruit and shoot borer,"[2]; 10 DAA, dose 30 gm ai/ha",5.9%
same,Percent control Fruit and shoot borer,"[2]; 14 DAA, dose 30 gm ai/ha",4.9%
O=C(NC(=O)c1c(F)cccc1F)Nc1ccc(OC(F)(F)C(F)OC(F)(F)F)c(Cl)c1 (stereo not drawn) [Novaluron],Percent control Fruit and shoot borer,"[1]; 3 DAA, dose 100 gm ai/ha",64.3%
same,Percent control Fruit and shoot borer,"[1]; 7 DAA, dose 100 gm ai/ha",75%
same,Percent control Fruit and shoot borer,"[1]; 10 DAA, dose 100 gm ai/ha",68.3%
same,Percent control Fruit and shoot borer,"[1]; 14 DAA, dose 100 gm ai/ha",64.3%
same,Percent control Fruit and shoot borer,"[2]; 3 DAA, dose 100 gm ai/ha",5%
same,Percent control Fruit and shoot borer,"[2]; 7 DAA, dose 100 gm ai/ha",6%
same,Percent control Fruit and shoot borer,"[2]; 10 DAA, dose 100 gm ai/ha",5.9%
same,Percent control Fruit and shoot borer,"[2]; 14 DAA, dose 100 gm ai/ha",4.9%
